Results published in publication PMC12044458 (ACS Omega, 2025).

Columns and labels:
[1] = system: Poly(I:C) HMW (RNA, polymer, hypoxanthine (inosine) in place of every G of strand 1 (polyinosinic acid)) G/C; assay: UV melting; settings: PBS, 0 mM Mg2+, derived from two Tm (67 and 67), compound concentration not in material, per base
[2] = system: Poly(I:C) Na^+ (RNA, polymer, hypoxanthine (inosine) in place of every G of strand 1 (polyinosinic acid)) G/C; assay: UV melting; settings: PBS, 0 mM Mg2+, derived from two Tm (64 and 65), compound concentration not in material, per base

## CN(C)[C@@H]1C(=O)C(C(N)=O)=C(O)[C@@]2(O)C(=O)C3=C(O)c4c(O)cccc4[C@@](C)(O)[C@H]3C[C@@H]12
[1]
  melting temperature shift (ΔTm): 0 °C
[2]
  melting temperature shift (ΔTm): -1 °C
